Test results reported in patent US20090099199A1, “ORGANIC COMPOUNDS” (priority 2007, published 2009).
Counter-ions that a name gives are not always drawn.

Legend:
[1] = target: T1, recombinant human NPY Y2 receptors (Homo sapiens, UniProt P49146); assay: Scintillation proximity [35S]GTPγS binding assay (inhibition of 0.5 nM NPY-stimulated [35S]GTPγS binding); type: biochemical; settings: 10 μM compound, membranes from CHO-C4 cells expressing recombinant human NPY Y2 receptors, read-out: [%] inhibiton at 10 μM
T1 construct: expressed in transfected cells; host or cells: CHO-C4 cells (membrane preparation)
T1 sequence (P49146 1-381): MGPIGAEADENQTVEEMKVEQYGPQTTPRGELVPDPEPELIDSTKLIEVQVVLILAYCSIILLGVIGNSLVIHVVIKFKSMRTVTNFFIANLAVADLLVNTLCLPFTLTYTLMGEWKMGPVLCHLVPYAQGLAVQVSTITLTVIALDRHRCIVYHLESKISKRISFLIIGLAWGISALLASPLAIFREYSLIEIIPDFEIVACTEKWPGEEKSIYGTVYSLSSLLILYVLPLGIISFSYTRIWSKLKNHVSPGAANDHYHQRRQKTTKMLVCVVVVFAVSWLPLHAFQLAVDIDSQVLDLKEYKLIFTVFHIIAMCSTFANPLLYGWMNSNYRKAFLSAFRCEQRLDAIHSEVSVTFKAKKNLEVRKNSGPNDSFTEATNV
Protocol: Preparation of Membranes: CHO-C4 cells expressing recombinant human NPY Y2 receptors were used to prepare membranes for the GTPγS assay. Cells were grown to 80-95% confluency on 15-cm (225 cm^2) tissue culture plates. After aspiration of the culture medium, cells were washed twice with 18 ml ice-cold phosphate-buffered saline (PBS), scraped off and suspended in 3 ml ice-cold PBS in pre-cooled centrifuge tubes. The dishes were rinsed with 2 ml ice-cold PBS per dish and the washings were combined with the PBS cell suspension from above. Cells pooled from 5-7 dishes were centrifuged for 5 min at 10,000 rpm (12,000 g) in a Sorvall RC5B centrifuge using an SS34 rotor at 4° C. The cell pellet was resuspended in 5 ml ice-cold buffer (20 mM HEPES, 10 mM EDTA; pH 7.4) by vortexing (2-5 sec), homogenized using a Polytron (step 4 for 20-30 sec), and ice-cold buffer added to 25 ml. The suspension was centrifuged again for 20 min at 18,000 rpm (39,000 g) at 4° C. and the pellet resuspended in 5 ml ice-cold buffer (20 mM HEPES, 0.1 mM EDTA; pH 7.4) by vortexing (2-5 sec), homogenized with a Polytron (step 4 for 10 sec), and ice-cold buffer added to 25 ml. The suspension was centrifuged a third time for 20 min at 18,000 rpm (39,000 g) at 4° C. The pellet was resuspend in 1 ml ice-cold buffer (20 mM HEPES, 0.1 mM EDTA; pH 7.4) by vortexing (5-8 sec). Two to five resuspended pellets were combined and homogenized using a Polytron (step 4 for 15-25 sec). A small aliquot (20-50 μl) was removed for protein determination by the Coomassie Plus Protein Assay Reagent (Pierce) using BSA as standard. The membrane suspension was aliquoted in pre-cooled (on dry ice) Eppendorf tubes (0.25-1 ml/tube affording approximately 0.5-2 mg of membrane protein/tube). The pellets were frozen and stored at −80° C.
Scintillation proximity [^35S]GTPγS binding assay: Frozen membranes from CHO-C4 cells expressing recombinant human NPY Y2 receptors (2 mg for four 96-well plates) were thawed on ice. Thawed membranes were pipetted into 10 ml of assay buffer (20 mM HEPES, 10 mM MgCl2, 100 mM NaCl, pH 7.4) and homogenized briefly using a Polytron. The final assay mixture was prepared in 96-well microtiter plates (Isoplate Wallac, Perkin Elmer). The composition of the assay mixtures in a final volume of 250 μl per well was as follows: 20 mM HEPES, 10 mM MgCl2, 100 mM NaCl, pH 7.4, 30 μM GDP, 1 mg/ml BSA (added fresh), 5 μg membrane protein, 1.5 mg Wheatgerm agglutinin SPA beads (Amersham), 0.45 nM [^35S]GTPγS (Amersham, SJ1308. 1000 Ci/mmol, stabilized solution), and the test compounds (agonists and/or antagonists) at the appropriate concentrations. The samples were incubated at room temperature for 90 min by shaking, after which the SPA beads were sedimented by centrifugation in an Eppendorf 5804 centrifuge at 2700 rpm for 10 min at room temperature. After 60 min the plates were counted in a TopCount (Canberra). Basal [^35S]GTPγS binding was measured in the absence of agonist (NPY). Non-specific binding was measured in the presence of excess (10 μM) unlabelled GTPγS (Sigma). Nonspecific binding never exceeded 10% of basal binding and was thus not subtracted from the experimental data. Antagonists were tested for the inhibition of 0.5 nM NPY-stimulated [^35S]GTPγS binding. Antagonist inhibition curves were analyzed by non-linear regression using GraphPad Prism software (Version 4.0, GraphPad Software Inc., CA, USA).
Antagonistic activity of compounds of the present invention is examined by the Scintillation proximity [^35S]GTPγS binding assay as described above (inhibition of 0.5 nM NPY-stimulated [^35S]GTPγS binding). The table below represents percentages of inhibition at a concentration of 10 μM.

rats = settings: icv administration (Thorsell et al. Neurosci. Lett. 2002); cited from earlier work

Row | SMILES | inhibition at 10 µM [1] [%] | ethanol self-administration (rats)
1 | Cc1noc(C)c1Nc1nc2cc(N3CCN(C(c4ccccc4)c4ccccc4)CC3)c(F)cc2[nH]1 [Compound 22, [5-(4-Benzhydryl-piperazin-1-yl)-6-fluoro-1H-benzoimidazol-2-yl]-(3,5-dimethyl-isoxazol-4-yl)-amine triluoroacetate salt] | 71 | 
2 | O=C(Nc1ccc(N2CCC(C(c3ccccc3)c3ccccc3)CC2)c(F)c1)C1CCOC1 (centres unmarked) [Compound 17, Tetrahydro-furan-3-carboxylic acid [4-(4-benzhydryl-piperidin-1-yl)-3-fluoro-phenyl]-amide] | 86 | 
3 | N=C(N)NCCC[C@H](NC(=O)CC1(CC(=O)N2CCN(C3c4ccccc4NC(=O)c4ccccc43)CC2)CCCC1)C(=O)NCCn1c(=O)n(-c2ccccc2)n(-c2ccccc2)c1=O (some centres unmarked) [BIIE0246] |  | dose dependently reduced ethanol self-administration
4 | CCC(CC)Nc1nc2cc(N3CCN(C(c4ccccc4)c4ccccc4)CC3)c(F)cc2[nH]1 [Compound 23, 5-(4-Benzhydryl-piperazin-1-yl)-6-fluoro-1H-benzoimidazol-2-yl]-(1-ethyl-propyl)-amine triluoroacetate salt] | 72 | 
5 | CCC(CC)C(=O)Nc1ccc(N2CCC(C(c3ccccc3)c3ccccc3)CC2)c(F)c1 [Compound 18, N-[4-(4-Benzhydryl-piperidin-1-yl)-3-fluoro-phenyl]-2-ethyl-butyramide] | 85 | 
6 | Cc1noc(C)c1-c1nc2cc(N3CCN(C(c4ccccc4)c4ccccc4)CC3)c(F)cc2[nH]1 [Compound 21, 5-(4-Benzhydryl-piperazin-1-yl)-2-(3,5-dimethyl-isoxazol-4-yl)-6-fluoro-1H-benzoimidazole] | 44 | 
7 | Cn1cccc1C(=O)Nc1ccc(N2CCN(C(c3ccccc3)c3ccccc3)CC2)c(F)c1 [Compound 11, 1-Methyl-1H-pyrrole-2-carboxylic acid [4-(4-benzhydryl-piperazin-1-yl)-3-fluoro-phenyl]-amide] | 62 | 
8 | Cc1noc(C)c1NC(=O)Nc1ccc(N2CCC(C(c3ccccc3)c3ccccc3)CC2)c(F)c1 [Compound 16, 1-[4-(4-Benzhydryl-piperidin-1-yl)-3-fluoro-phenyl]-3-(3,5-dimethyl-isoxazol-4-yl)-urea] | 90 | 
9 | CCC(CC)C(=O)Nc1ccc(N2CCN(C(c3ccccn3)[C@H]3CCCO3)CC2)c(F)c1 (stereo partly drawn) [Compound 25, 2-Ethyl-N-{3-fluoro-4-[4-((R)-pyridin-2-yl-tetrahydro-furan-2-yl-methyl)-piperazin-1-yl]-phenyl}-butyramide] | 90 | 
10 | CCC(CC)c1nc2cc(N3CCN(C(c4ccccc4)c4ccccc4)CC3)c(F)cc2[nH]1 [Compound 19, 5-(4-Benzhydryl-piperazin-1-yl)-2-(1-ethyl-propyl)-6-fluoro-1H-benzoimidazole] | 82 | 
11 | Cc1ncccc1C(=O)Nc1ccc(N2CCN(C(c3ccccc3)c3ccccc3)CC2)c(F)c1 [Compound 10, N-[4-(4-Benzhydryl-piperazin-1-yl)-3-fluoro-phenyl]-2-methyl-nicotinamide] | 85 | 
12 | Cc1noc(C)c1NC(=O)Nc1ccc(N2CCC(C(c3ccccc3)c3ccccc3)CC2)c(C#N)c1 [Compound 13] | 91 | 
13 | N#Cc1cc(NC(=O)C2CCOC2)ccc1N1CCN(C(c2ccccc2)c2ccccc2)CC1 (centres unmarked) [Compound 2, Tetrahydro-furan-3-carboxylic acid [4-(4-benzhydryl-piperazin-1-yl)-3-cyano-phenyl]-amide] | 89 | 
14 | Cc1noc(C)c1NC(=O)Nc1ccc(N2CCN(C(c3ccc(F)cc3)c3ccc(F)cc3)CC2)c(C#N)c1 [Compound 7] | 87 | 
15 | Cn1nccc1C(=O)Nc1ccc(N2CCN(C(c3ccccc3)c3ccccc3)CC2)c(F)c1 [Compound 12, 2-Methyl-2H-pyrazole-3-carboxylic acid [4-(4-benzhydryl-piperazin-1-yl)-3-fluoro-phenyl]-amide] | 65 | 
16 | Cc1noc(C)c1C(=O)Nc1ccc(N2CCN(C(c3ccccc3)c3ccccc3)CC2)c(F)c1 [Compound 9, 3,5-Dimethyl-isoxazole-4-carboxylic acid [4-(4-benzhydryl-piperazin-1-yl)-3-fluoro-phenyl]-amide] | 85 | 
17 | CCC(CC)C(=O)Nc1ccc(N2CCC(C(c3ccccn3)c3ccccn3)CC2)c(F)c1 [Compound 24, N-{4-[4-(Di-pyridin-2-yl-methyl)-piperidin-1-yl]-3-fluoro-phenyl}-2-ethyl-butyramide] | 95 | 
18 | Cc1noc(C)c1NC(=O)Nc1ccc(N2CCN(C(c3ccc(F)cc3)c3ccc(F)cc3)CC2)c(F)c1 [Compound 8, 1-(4-{4-[Bis-(4-fluoro-phenyl)-methyl]-piperazin-1-yl}-3-fluoro-phenyl)-3-(3,5-dimethyl-isoxazol-4-yl)-urea] | 86 | 

The next lines start with results.

Row | inhibition at 10 µM [1] [%] | SMILES | ethanol self-administration (rats)
19 | 85 | O=C(Nc1ccc(N2CCN(C(c3ccccc3)c3ccccc3)CC2)c(F)c1)C1CCOC1 (centres unmarked) [Compound 5] | 
20 | 95 | Cc1noc(C)c1NC(=O)Nc1ccc(N2CCN(C(c3ccccc3)c3ccccc3)CC2)c(C#N)c1 [Compound 1, 1-[4-(4-Benzhydryl-piperazin-1-yl)-3-cyano-phenyl]-3-(3,5-dimethyl-isoxazol-4-yl)-urea] | 
21 | 90 | N#Cc1cc(NC(=O)C2CCOC2)ccc1N1CCC(C(c2ccccc2)c2ccccc2)CC1 (centres unmarked) [Compound 14, Tetrahydro-furan-3-carboxylic acid [4-(4-benzhydryl-piperidin-1-yl)-3-cyano-phenyl]-amide] | 
22 | 53 | Fc1cc2[nH]c(C3CCOC3)nc2cc1N1CCN(C(c2ccccc2)c2ccccc2)CC1 (centres unmarked) [Compound 20, 5-(4-Benzhydryl-piperazin-1-yl)-6-fluoro-2-(tetrahydro-furan-3-yl)-1H-benzoimidazole] | 
23 | 88 | CCC(CC)C(=O)Nc1ccc(N2CCN(C(c3ccccc3)c3ccccc3)CC2)c(C#N)c1 [Compound 3, N-[4-(4-Benzhydryl-piperazin-1-yl)-3-cyano-phenyl]-2-ethyl-butyramide] | 
24 | 86 | CCC(CC)C(=O)Nc1ccc(N2CCC(C(c3ccccc3)c3ccccc3)CC2)c(C#N)c1 [Compound 15, N-[4-(4-Benzhydryl-piperidin-1-yl)-3-cyano-phenyl]-2-ethyl-butyramide] | 
25 | 89 | Cc1noc(C)c1NC(=O)Nc1ccc(N2CCN(C(c3ccccc3)c3ccccc3)CC2)c(F)c1 [Compound 4, 1-[4-(4-Benzhydryl-piperazin-1-yl)-3-fluoro-phenyl]-3-(3,5-dimethyl-isoxazol-4-yl)-urea] | 
26 | 89 | CCC(CC)C(=O)Nc1ccc(N2CCN(C(c3ccccc3)c3ccccc3)CC2)c(F)c1 [Compound 6] | 
